Patent US20170087174A1, “COMBINATION THERAPY REGIMEN FOR TREATMENT OF HCV” (JANSSEN PHARMACEUTICALS, INC., priority 2015, published 2017)
“Also recorded” adds a separate entry of the source. Where two headings read alike, the source gives them in different places.

Experiments:
[1] = Phase-1 drug-drug interaction study in healthy volunteers (Compound (III) 800 mg, SMV 150 mg, Odalasvir 150 mg loading then 50 mg, once daily): plasma PK; type: in vivo, human; conditions: for AUC0-24 / Cmax: human
Excerpt: The following daily doses were employed:

[2] = PK of single agents vs fixed dose combinations (FDC), single oral dose in healthy volunteers; type: in vivo, human; conditions: for Cmax / AUC(0-t) / AUC(0-inf) / Tmax: human, plasma, oral; for Cmax: read-out: Cmax (mean ± SD); for AUC(0-t): read-out: AUClast (mean ± SD); for AUC(0-inf): read-out: AUC∞ (mean ± SD); for Tmax: read-out: tmax (median [range])
Description: SMV (100 mg), ODV (50 mg), and Compound (III) (800 mg) were administered as three different formulations or together as single doses in vivo to healthy volunteers. The arms of the study included: • Arm 1 (Reference Arm): Single oral doses of single agents, one SMV 100-mg capsule, one ODV 50-mg tablet as granule layered solid dispersion with copovidone and poloxamers, and two Compound (III) 400-mg tablets, administered together. • Arm 2: Single oral dose of fixed dose combination (FDC02): SMV 100 mg+ODV 50 mg as a spray dried solid dispersion with HPMC-AS L in a ratio ODV/HPMC-AS L 1/1 w/w+Compound (III) 800 mg • Arm 3: Single oral dose of fixed dose combination (FDC04): SMV 100 mg+ODV 50 mg as a spray dried solid dispersion with HPMC-AS L in a ratio ODV/HPMC-AS L 1/3 w/w+Compound (III) 800 mg • Arm 4: Single oral dose of fixed dose combination (FDC01): SMV 100 mg+ODV 50 mg as a spray dried solid dispersion with copovidone and poloxamers+Compound (III) 800 mg
PK parameters, including Cmax, tmax, AUClast, and AUC∞ were measured for Compound (III), ODV, SMV, and metabolites Compound A-I and Compound A-3 for each Arm of the study. Arms that included fixed dose combinations (FDC) (Arm 2, Arm 3, and Arm 4) were then compared to a single oral dose (Arm 1, the reference Arm). Table 9, Table 10, Table 11, Table 12 and Table 13 display relevant PK parameters and FIG. 9, FIG. 10, FIG. 11, FIG. 12, and FIG. 13 depict the plasma concentration over time of SMV, ODV, Compound A-1, and Compound A-3 for each Arm of the study.

P-gp = P-gp (Homo sapiens, UniProt P08183); conditions: in vitro, cited from earlier work
Sequence of P-gp (P08183 whole entry): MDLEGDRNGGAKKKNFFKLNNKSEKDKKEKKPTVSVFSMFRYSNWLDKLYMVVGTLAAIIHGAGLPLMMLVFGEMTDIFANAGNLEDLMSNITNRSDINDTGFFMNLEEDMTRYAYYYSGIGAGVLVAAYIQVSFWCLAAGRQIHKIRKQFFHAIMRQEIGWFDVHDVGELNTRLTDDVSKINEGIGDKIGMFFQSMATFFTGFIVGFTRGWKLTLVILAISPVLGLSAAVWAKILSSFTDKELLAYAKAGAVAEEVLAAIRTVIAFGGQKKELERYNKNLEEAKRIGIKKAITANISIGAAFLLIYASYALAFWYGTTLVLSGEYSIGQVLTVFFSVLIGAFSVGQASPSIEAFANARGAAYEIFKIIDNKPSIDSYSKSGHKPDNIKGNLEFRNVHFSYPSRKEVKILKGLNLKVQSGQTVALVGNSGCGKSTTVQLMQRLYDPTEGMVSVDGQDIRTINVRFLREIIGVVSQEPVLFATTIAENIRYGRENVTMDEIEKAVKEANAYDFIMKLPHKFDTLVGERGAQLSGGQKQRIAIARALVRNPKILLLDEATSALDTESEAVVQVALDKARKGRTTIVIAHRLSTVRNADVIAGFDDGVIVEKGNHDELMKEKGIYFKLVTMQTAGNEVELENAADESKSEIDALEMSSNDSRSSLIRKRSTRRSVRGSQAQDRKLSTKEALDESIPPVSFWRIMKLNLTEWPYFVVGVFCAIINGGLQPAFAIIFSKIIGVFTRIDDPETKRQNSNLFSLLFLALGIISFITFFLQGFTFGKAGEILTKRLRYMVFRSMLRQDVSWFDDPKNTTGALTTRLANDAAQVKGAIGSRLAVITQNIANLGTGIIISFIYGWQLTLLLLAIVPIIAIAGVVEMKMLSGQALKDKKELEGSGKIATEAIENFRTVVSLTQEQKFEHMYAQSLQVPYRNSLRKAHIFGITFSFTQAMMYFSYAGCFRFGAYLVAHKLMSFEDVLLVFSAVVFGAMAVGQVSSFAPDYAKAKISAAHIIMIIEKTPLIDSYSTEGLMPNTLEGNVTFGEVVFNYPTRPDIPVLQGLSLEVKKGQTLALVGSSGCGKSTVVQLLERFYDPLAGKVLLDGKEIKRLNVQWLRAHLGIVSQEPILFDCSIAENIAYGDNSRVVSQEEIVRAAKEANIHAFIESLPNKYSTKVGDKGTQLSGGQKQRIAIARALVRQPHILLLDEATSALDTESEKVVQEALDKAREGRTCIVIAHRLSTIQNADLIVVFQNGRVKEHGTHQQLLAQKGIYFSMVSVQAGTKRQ

MRP2 = MRP2 (Homo sapiens, UniProt Q92887); conditions: in vitro, cited from earlier work
Sequence of MRP2 (Q92887 whole entry): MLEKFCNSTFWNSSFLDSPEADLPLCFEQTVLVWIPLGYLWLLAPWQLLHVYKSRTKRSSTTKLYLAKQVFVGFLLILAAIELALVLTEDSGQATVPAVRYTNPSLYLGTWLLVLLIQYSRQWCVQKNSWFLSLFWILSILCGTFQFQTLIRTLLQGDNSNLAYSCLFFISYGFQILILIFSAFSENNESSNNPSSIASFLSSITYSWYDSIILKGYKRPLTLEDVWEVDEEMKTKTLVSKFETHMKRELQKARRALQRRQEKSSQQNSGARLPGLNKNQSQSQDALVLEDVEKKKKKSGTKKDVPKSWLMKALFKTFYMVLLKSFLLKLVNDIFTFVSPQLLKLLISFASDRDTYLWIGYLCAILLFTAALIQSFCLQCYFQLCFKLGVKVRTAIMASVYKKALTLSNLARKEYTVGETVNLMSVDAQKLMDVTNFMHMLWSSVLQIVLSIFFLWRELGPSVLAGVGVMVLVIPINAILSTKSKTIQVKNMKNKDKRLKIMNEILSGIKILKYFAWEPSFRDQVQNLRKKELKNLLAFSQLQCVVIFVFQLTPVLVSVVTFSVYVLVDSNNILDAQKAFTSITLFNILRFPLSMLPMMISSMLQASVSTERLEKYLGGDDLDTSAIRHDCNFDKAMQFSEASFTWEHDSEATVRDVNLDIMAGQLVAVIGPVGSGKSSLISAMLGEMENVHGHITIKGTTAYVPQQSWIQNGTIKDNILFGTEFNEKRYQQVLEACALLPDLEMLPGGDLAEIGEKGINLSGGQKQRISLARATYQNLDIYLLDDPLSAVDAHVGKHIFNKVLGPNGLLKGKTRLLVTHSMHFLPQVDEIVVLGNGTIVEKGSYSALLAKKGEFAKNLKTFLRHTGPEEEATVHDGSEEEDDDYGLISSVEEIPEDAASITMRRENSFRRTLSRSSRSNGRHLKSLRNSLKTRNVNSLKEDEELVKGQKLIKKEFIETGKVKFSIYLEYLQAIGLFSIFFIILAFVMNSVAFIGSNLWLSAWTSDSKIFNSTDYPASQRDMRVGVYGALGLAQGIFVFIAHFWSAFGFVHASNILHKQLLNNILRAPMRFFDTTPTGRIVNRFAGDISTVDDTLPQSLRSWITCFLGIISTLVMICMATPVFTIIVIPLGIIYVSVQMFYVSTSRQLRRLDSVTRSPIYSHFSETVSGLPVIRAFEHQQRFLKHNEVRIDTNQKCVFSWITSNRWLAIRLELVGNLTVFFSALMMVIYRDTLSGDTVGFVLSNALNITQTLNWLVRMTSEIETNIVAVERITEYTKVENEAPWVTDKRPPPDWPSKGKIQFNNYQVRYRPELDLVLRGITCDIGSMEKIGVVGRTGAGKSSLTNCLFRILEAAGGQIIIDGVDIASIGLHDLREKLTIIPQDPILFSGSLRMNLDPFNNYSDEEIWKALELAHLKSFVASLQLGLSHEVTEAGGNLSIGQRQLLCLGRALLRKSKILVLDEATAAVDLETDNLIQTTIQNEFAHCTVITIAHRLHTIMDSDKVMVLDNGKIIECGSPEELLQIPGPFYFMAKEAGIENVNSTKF

OATP1B1 = target: T1, OATP1B1 (Homo sapiens, UniProt Q9Y6L6); conditions: in vitro, cited from earlier work
T1 sequence (Q9Y6L6 1-691): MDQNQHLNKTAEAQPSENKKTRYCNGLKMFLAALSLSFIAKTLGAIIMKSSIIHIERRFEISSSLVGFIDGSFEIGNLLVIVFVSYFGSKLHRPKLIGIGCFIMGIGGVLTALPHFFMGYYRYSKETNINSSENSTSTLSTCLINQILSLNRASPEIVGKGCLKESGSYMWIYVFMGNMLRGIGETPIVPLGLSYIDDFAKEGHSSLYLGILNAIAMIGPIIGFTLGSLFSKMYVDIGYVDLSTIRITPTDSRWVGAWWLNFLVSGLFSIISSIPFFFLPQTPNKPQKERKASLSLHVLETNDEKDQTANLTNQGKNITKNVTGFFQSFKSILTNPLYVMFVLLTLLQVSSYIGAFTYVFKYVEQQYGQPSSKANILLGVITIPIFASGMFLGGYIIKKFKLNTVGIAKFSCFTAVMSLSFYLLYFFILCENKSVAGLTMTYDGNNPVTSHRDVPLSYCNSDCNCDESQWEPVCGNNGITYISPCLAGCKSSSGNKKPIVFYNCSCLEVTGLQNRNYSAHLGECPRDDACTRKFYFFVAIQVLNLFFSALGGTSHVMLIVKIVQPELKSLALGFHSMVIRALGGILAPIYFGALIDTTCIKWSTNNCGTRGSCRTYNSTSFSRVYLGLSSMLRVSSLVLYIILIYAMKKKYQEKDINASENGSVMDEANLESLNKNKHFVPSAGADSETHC

[3] = system: CYP (cytochrome P450 enzymes); experiment: CYP inhibition in vitro; conditions: for CYP inhibition potential (in words): on any CYP
[4] = Arm 1 (reference): single agents together
[5] = Arm 2 (FDC02) vs reference (Arm 1)
[6] = Arm 3 (FDC04) vs reference (Arm 1)
[7] = Arm 4 (FDC01) vs reference (Arm 1)
[8] = Arm 1 (reference): single agents together, SMV 100-mg capsule, ODV 50-mg tablet, two Compound (III) 400-mg tablets
[9] = Arm 2: FDC02, SMV 100 mg + ODV 50 mg (ODV/HPMC-AS L 1/1 w/w) + Compound (III) 800 mg
[10] = Arm 3: FDC04, SMV 100 mg + ODV 50 mg (ODV/HPMC-AS L 1/3 w/w) + Compound (III) 800 mg
[11] = Arm 4: FDC01, SMV 100 mg + ODV 50 mg (copovidone and poloxamers) + Compound (III) 800 mg

For COC(=O)N[C@H](C(=O)N1[C@H](c2nc3cc(-c4cc5ccc4CCc4ccc(c(-c6ccc7[nH]c([C@@H]8C[C@@H]9CCCC[C@@H]9N8C(=O)[C@@H](NC(=O)OC)C(C)C)nc7c6)c4)CC5)ccc3[nH]2)C[C@@H]2CCCC[C@@H]21)C(C)C [ODV, Odalasvir], the “increase of exposure, effect of the three Compounds” value ([1]; Compound (III) + SMV + ODV co-administered vs given alone) was 1.5 fold, the AUC0-24 ([1]; both sexes, plasma, oral, Group 1, Day 20 (ODV + SMV), read-out: AUC0-24) was 10800 ng·h/mL and the Cmax ([1]; both sexes, plasma, oral, Group 1, Day 20 (ODV + SMV), read-out: Cmax) was 649 ng/mL. The AUC0-24 ([1]; both sexes, plasma, oral, Group 1, Day 23 (SMV + Compound (III) + ODV), read-out: AUC0-24) was 12800 ng·h/mL, the Cmax ([1]; both sexes, plasma, oral, Group 1, Day 23 (SMV + Compound (III) + ODV), read-out: Cmax) was 744 ng/mL and the AUC0-24 ([1]; both sexes, plasma, oral, Group 2, Day 10 (ODV alone), read-out: AUC0-24) was 8720 ng·h/mL. It also gave a Cmax ([1]; both sexes, plasma, oral, Group 2, Day 10 (ODV alone), read-out: Cmax) of 582 ng/mL, an AUC0-24 ([1]; both sexes, plasma, oral, Group 2, Day 13 (ODV + Compound (III)), read-out: AUC0-24) of 10200 ng·h/mL and a Cmax ([1]; both sexes, plasma, oral, Group 2, Day 13 (ODV + Compound (III)), read-out: Cmax) of 669 ng/mL. For the same molecule, the AUC0-24 ([1]; both sexes, plasma, oral, Group 2, Day 20 (ODV + SMV), read-out: AUC0-24) was 14000 ng·h/mL, the Cmax ([1]; both sexes, plasma, oral, Group 2, Day 20 (ODV + SMV), read-out: Cmax) was 770 ng/mL and the AUC0-24 ([1]; both sexes, plasma, oral, Group 2, Day 23 (ODV + Compound (III) + SMV), read-out: AUC0-24) was 14800 ng·h/mL. For the same molecule, the Cmax ([1]; both sexes, plasma, oral, Group 2, Day 23 (ODV + Compound (III) + SMV), read-out: Cmax) was 780 ng/mL, the “effect of Compound (III) on exposure / bioavailability” value ([1]; co-administered with Compound (III)) was “no apparent effect; also recorded: does not alter” and the “increase of exposure caused by SMV” value ([1]; co-administered with SMV vs without) was 1.6 fold. The “t1/2term (mean ± SD)” value [2, 4] was 168.6 ± 21.7 h, the “Least Square Means Ratio, AUClast” value [2, 5] was 89.66% and the “Least Square Means Ratio, Cmax” value [2, 5] was 81.00%. For the same molecule, the “t1/2term (mean ± SD)” value ([2]; Arm 2: FDC02) was 169.0 ± 24.5 h, the “Least Square Means Ratio, AUClast” value [2, 6] was 182.32% and the “Least Square Means Ratio, Cmax” value [2, 6] was 165.30%. For the same molecule, the “t1/2term (mean ± SD)” value ([2]; Arm 3: FDC04) was 176.0 ± 29.5 h, the “Least Square Means Ratio, AUClast” value [2, 7] was 180.14% and the “Least Square Means Ratio, Cmax” value [2, 7] was 163.29%. For the same molecule, the “t1/2term (mean ± SD)” value ([2]; Arm 4: FDC01) was 167.8 ± 22.4 h, the Cmax [2, 8] was 186 ± 60.4 ng/mL and the AUC(0-t) [2, 4] was 6320 ± 2320 ng·h/mL. It also gave an AUC(0-inf) [2, 4] of 7080 ± 2140 ng·h/mL, a Tmax [2, 4] of 6 h and a Cmax [2, 9] of 151 ± 54 ng/mL. It also gave an AUC(0-t) ([2]; Arm 2: FDC02) of 5590 ± 1890 ng·h/mL, an AUC(0-inf) ([2]; Arm 2: FDC02) of 7040 ± 2130 ng·h/mL and a Tmax ([2]; Arm 2: FDC02) of 6 h. It also gave a Cmax [2, 10] of 301 ± 80.5 ng/mL, an AUC(0-t) ([2]; Arm 3: FDC04) of 11500 ± 4390 ng·h/mL and an AUC(0-inf) ([2]; Arm 3: FDC04) of 14800 ± 5120 ng·h/mL. For the same molecule, the Tmax ([2]; Arm 3: FDC04) was 6 h, the Cmax [2, 11] was 298 ± 81.7 ng/mL and the AUC(0-t) ([2]; Arm 4: FDC01) was 11100 ± 3350 ng·h/mL. The AUC(0-inf) ([2]; Arm 4: FDC01) was 15700 ± 3560 ng·h/mL, the Tmax ([2]; Arm 4: FDC01) was 6 h and the “P-gp inhibition (in words)” value (P-gp) was “moderate inhibition”. The IC50 (P-gp; read-out: Pgp inhibition IC50) was 9.5 µM, the “MRP2 inhibition (in words)” value (MRP2) was “no inhibition” and the “OATP1B1 inhibition (in words)” value (OATP1B1) was “no inhibition”. For the same molecule, the “CYP inhibition potential (in words)” value [3] was “does not inhibit” and the “inhibition of any CYP” value ([3]; up to 10 μM) was “no inhibition”.

With COc1ccc2c(O[C@@H]3C[C@H]4C(=O)N[C@]5(C(=O)NS(=O)(=O)C6CC6)C[C@H]5/C=C\CCCCN(C)C(=O)[C@@H]4C3)cc(-c3nc(C(C)C)cs3)nc2c1C [SMV, Simeprevir, reference compound] the AUC0-24 ([1]; both, in vivo) was 41258 ng·h/mL, the Cmax ([1]; both, in vivo) was 2957 ng/mL and the “t1/2term (mean ± SD)” value [2, 4] was 8.3 ± 1.8 h. The “Least Square Means Ratio, AUClast” value [2, 5] was 127.79%, the “Least Square Means Ratio, AUC∞” value [2, 5] was 126.19% and the “Least Square Means Ratio, Cmax” value [2, 5] was 116.50%. The “t1/2term (mean ± SD)” value ([2]; Arm 2: FDC02) was 8.7 ± 2.3 h, the “Least Square Means Ratio, AUClast” value [2, 6] was 133.85% and the “Least Square Means Ratio, AUC∞” value [2, 6] was 132.28%. For the same molecule, the “Least Square Means Ratio, Cmax” value [2, 6] was 115.24%, the “t1/2term (mean ± SD)” value ([2]; Arm 3: FDC04) was 9.1 ± 1.6 h and the “Least Square Means Ratio, AUClast” value [2, 7] was 117.50%. For the same molecule, the “Least Square Means Ratio, AUC∞” value [2, 7] was 116.00%, the “Least Square Means Ratio, Cmax” value [2, 7] was 108.22% and the “t1/2term (mean ± SD)” value ([2]; Arm 4: FDC01) was 8.5 ± 1.5 h. For the same molecule, the Cmax [2, 8] was 777 ± 225 ng/mL, the AUC(0-t) [2, 4] was 9420 ± 3380 ng·h/mL and the AUC(0-inf) [2, 4] was 9920 ± 3430 ng·h/mL. It also gave a Tmax [2, 4] of 6 h, a Cmax [2, 9] of 942 ± 431 ng/mL and an AUC(0-t) ([2]; Arm 2: FDC02) of 12700 ± 6260 ng·h/mL. The AUC(0-inf) ([2]; Arm 2: FDC02) was 13200 ± 6430 ng·h/mL, the Tmax ([2]; Arm 2: FDC02) was 6 h and the Cmax [2, 10] was 906 ± 321 ng/mL. It also gave an AUC(0-t) ([2]; Arm 3: FDC04) of 12900 ± 5830 ng·h/mL, an AUC(0-inf) ([2]; Arm 3: FDC04) of 13400 ± 6020 ng·h/mL and a Tmax ([2]; Arm 3: FDC04) of 6 h. It also gave a Cmax [2, 11] of 856 ± 318 ng/mL, an AUC(0-t) ([2]; Arm 4: FDC01) of 11600 ± 6300 ng·h/mL and an AUC(0-inf) ([2]; Arm 4: FDC01) of 12100 ± 6410 ng·h/mL. For the same molecule, the Tmax ([2]; Arm 4: FDC01) was 6 h, the “P-gp inhibition (in words)” value (P-gp) was “strong/moderate” and the “MRP2 inhibition (in words)” value (MRP2) was “strong/moderate”. For the same molecule, the IC50 (MRP2; read-out: MRP2 inhibition IC50) was 6 to 19 µM, the “OATP1B1 inhibition (in words)” value (OATP1B1) was “strong in vitro inhibition” and the IC50 (OATP1B1; read-out: OATP1B1 inhibition IC50) was 0.3 µM. The “CYP inhibition potential (in words)” value [3] was “limited”.
